Results as given in patent US10981932B2, “Macrocyclic indole derivatives” (Bayer Aktiengesellschaft, priority 2016, dated 2021).
Values joined by “and” are separate entries in the source; they are usually repeats but may differ in a detail not shown here. Identical values can stand only once. Counter-ions that a name gives are not always drawn. Like-named read-outs stand apart in the source and are kept apart here.

Tests used:
[1] = target: MCL-1 (Homo sapiens, UniProt Q07820); assay: Protein-protein interaction assay MCL-1/Noxa BH3 peptide (MCL-1 assay), TR-FRET; type: binding; settings: MBP-MCL-1 / Noxa BH3-derived peptide, median
Summary of the method: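 IC50 came from a 4-parameter fit of the normalized 665/620 nm TR-FRET ratio (anti-MBP Eu-cryptate/streptavidin-XL665). Compounds (0.1 nM–20 μM, duplicates) were preincubated 10 min at 22 °C with 1 nM MBP-MCL-1 in pH 7 Tris/NaCl/KF buffer, then read after 1 h at 22 °C plus overnight at 4 °C.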

[2] = system: SUDHL5; assay: Induction of caspase-3/7 activity (Caspase-Glo 3/7), SUDHL5; type: cell-based; settings: caspase-3/7 induction, SUDHL5 cells, 3 h treatment, median
Summary of the method: (§1)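 DLBCL lines SUDHL5 and SUDHL10 treated with compounds for 3 h at 37 °C; caspase-3/7 activity read by Caspase-Glo 3/7 luminescence. Medium-only background subtracted; EC50 fitted with bottom fixed at 1 and top fixed at the reference compound's maximal induction.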

[3] = system: SUDHL10; assay: Induction of caspase-3/7 activity (Caspase-Glo 3/7), SUDHL10; type: cell-based; settings: caspase-3/7 induction, SUDHL10 cells, 3 h treatment, median
Summary of the method: as §1

[4] = system: SUDHL5; assay: Anti-proliferative effect (CellTiter-Glo, 72 h), SUDHL5; type: cell-based; settings: SUDHL5 cells, antiproliferation, 72 h incubation, median, read-out: Antiproli SUDHL5 [M] (median)
Summary of the method: (§2)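 Cells plated and incubated with compounds for 72 h at 37 °C, with a parallel day 0 reference plate for time-zero signal. Viability read by CellTiter-Glo luminescence after 10 min, measured identically on the day 0 and 72 h plates.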

[5] = system: SUDHL10; assay: Anti-proliferative effect (CellTiter-Glo, 72 h), SUDHL10; type: cell-based; settings: SUDHL10 cells, antiproliferation, 72 h incubation, median, read-out: Antiproli SUDHL10 [M] (median)
Summary of the method: as §2

[6] = system: OPM2; assay: Anti-proliferative effect (CellTiter-Glo, 72 h), OPM2; type: cell-based; settings: OPM2 cells, median, read-out: IC50 antiproliferation assay OPM2 [M] (median)
Summary of the method: as §2

[7] = system: A2780; assay: Anti-proliferative effect (CellTiter-Glo, 72 h), A2780; type: cell-based; settings: A2780 cells, median, read-out: IC50 antiproliferation assay A2780 [M] (median)
Summary of the method: as §2

[8] = system: SUDHL5; assay: Induction of cytotoxicity (CellTiter-Glo, 5 h), SUDHL5
[9] = system: SUDHL10; assay: Induction of cytotoxicity (CellTiter-Glo, 5 h), SUDHL10
[10] = read-out: Cytotox SUDHL5 [M] (median), SUDHL5 cells, cytotoxicity induction, CellTiter-Glo, 5 h incubation, median
[11] = read-out: Cytotox SUDHL10 [M] (median), SUDHL10 cells, cytotoxicity induction, CellTiter-Glo, 5 h incubation, median
[12] = Homo sapiens, SU-DHL-5, 5 h, read-out: Cytotox SUDHL5 [M] (median), SUDHL5 cells, cytotoxicity induction, CellTiter-Glo, 5 h incubation, median
[13] = Homo sapiens, SU-DHL10, 5 h, read-out: Cytotox SUDHL10 [M] (median), SUDHL10 cells, cytotoxicity induction, CellTiter-Glo, 5 h incubation, median

MCL-1, sequence (Q07820 whole entry): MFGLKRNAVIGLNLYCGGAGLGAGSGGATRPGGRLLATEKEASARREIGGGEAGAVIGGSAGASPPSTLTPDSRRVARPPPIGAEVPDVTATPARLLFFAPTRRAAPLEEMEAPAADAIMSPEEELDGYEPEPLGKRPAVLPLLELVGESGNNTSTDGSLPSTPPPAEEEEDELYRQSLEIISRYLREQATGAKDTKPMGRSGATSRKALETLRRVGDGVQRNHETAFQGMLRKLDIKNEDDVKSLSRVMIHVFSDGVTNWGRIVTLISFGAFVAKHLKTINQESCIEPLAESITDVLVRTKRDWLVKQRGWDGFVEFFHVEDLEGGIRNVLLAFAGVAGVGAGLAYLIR

Cc1nn(C)c2c1-c1cccc3c(CCCOc4cccc5ccccc45)c(C(=O)O)n(c13)CCCN(C)C2 (single isomer, unassigned; enantiomer 2) [Example 1-32, 7,9,11-trimethyl-1-[3-(naphthalen-1-yloxy)propyl]-4,5,6,7,8,9-hexahydropyrazolo[3′,4′:7,8][1,5]diazecino[9,10,1-hi]indole-2-carboxylic Acid-N-ethylethanamine Salt (Enantiomer 2)]
IC50 [1]: 0.0492 µM
EC50 [2]: > 33 µM
EC50 [3]: 22.9 µM and 20.4 µM and > 33 µM
IC50 [4]: 1.63e-05 M
IC50 [5]: 1.18e-05 M
IC50 [6]: 2.76e-05 M
IC50 [7]: 1.82e-05 M
IC50 [8, 10]: > 3.3e-05 M
IC50 [9, 11]: 3.23e-05 M

CC(=O)N1CCN(c2ccc(OCc3nn(C)c4c3-c3cccc5c(CCCOc6cccc7ccccc67)c(C(=O)O)n(c35)CCCCOC4)cc2)CC1 (racemic) [Example 1-24, (rac)-3-{[4-(4-acetylpiperazin-1-yl)phenoxy]methyl}-1-methyl-7-[3-(naphthalen-1-yloxy)propyl]-1,10,11,12,13,15-hexahydropyrazolo[4′,3′:9,10][1,6]oxazacycloundecino[8,7,6-hi]indole-8-carboxylic Acid]
IC50 [1]: 0.00231 µM
EC50 ([2]; Homo sapiens, SU-DHL-5, 3 h): 4.28 µM
EC50 ([3]; Homo sapiens, SU-DHL10, 3 h): 6.61 µM
IC50 ([4]; Homo sapiens, SU-DHL-5, 72 h): 4.7e-06 M
IC50 ([5]; Homo sapiens, SU-DHL10, 72 h): 6.52e-06 M
IC50 ([6]; Homo sapiens, OPM-2, 72 h): 2.97e-05 M
IC50 ([7]; Homo sapiens, A2780, 72 h): > 3.3e-05 M
IC50 [8, 12]: 2.23e-06 M
IC50 [9, 13]: 4.33e-06 M

Cc1cc(OCCCc2c(C(=O)O)n3c4c(cccc24)-c2c(C)nn(C)c2COCCCC3)cc(C)c1Cl (racemic) [Example 009, (rac)-7-[3-(4-chloro-3,5-dimethylphenoxy)propyl]-1,3-dimethyl-1,10,11,12,13,15-hexahydropyrazolo[4′,3′:9,10][1,6]oxazacycloundecino[8,7,6-hi]indole-8-carboxylic Acid]
IC50 [1]: 0.00632 µM
EC50 ([2]; Homo sapiens, SU-DHL-5, 3 h): 9.89 µM
EC50 ([3]; Homo sapiens, SU-DHL10, 3 h): 17.8 µM
IC50 ([4]; Homo sapiens, SU-DHL-5, 72 h): 3.62e-06 M
IC50 ([5]; Homo sapiens, SU-DHL10, 72 h): 8.05e-06 M
IC50 ([6]; Homo sapiens, OPM-2, 72 h): 2.1e-05 M
IC50 ([7]; Homo sapiens, A2780, 72 h): 2.25e-05 M
IC50 [8, 12]: 1.11e-05 M
IC50 [9, 13]: 2.04e-05 M

Cc1nn(C)c2c1-c1cccc3c(CCCOc4ccc(F)c5ccccc45)c(C(=O)O)n(c13)CCCCOC2 (racemic) [Example 021, (rac)-7-{3-[(4-fluoronaphthalen-1-yl)oxy]propyl}-1,3-dimethyl-1,10,11,12,13,15-hexahydropyrazolo[4′,3′:9,10][1,6]oxazacycloundecino[8,7,6-hi]indole-8-carboxylic Acid]
IC50 [1]: 0.011 µM
EC50 ([2]; Homo sapiens, SU-DHL-5, 3 h): 13.4 µM
EC50 ([3]; Homo sapiens, SU-DHL10, 3 h): > 33 µM
IC50 ([4]; Homo sapiens, SU-DHL-5, 72 h): 2.4e-05 M
IC50 ([5]; Homo sapiens, SU-DHL10, 72 h): 5.25e-06 M
IC50 ([6]; Homo sapiens, OPM-2, 72 h): > 3.3e-05 M
IC50 [7]: 2.52e-05 M
IC50 ([7]; Homo sapiens, A2780, 72 h): > 3.3e-05 M
IC50 [8, 12]: 1.82e-05 M
IC50 [9, 13]: > 3.3e-05 M

CC(C)OCc1nn(C)c2c1-c1cccc3c(CCCOc4cccc5c4CCCC5)c(C(=O)O)n(c13)CCCCOC2 (racemic) [Example 1-69, (rac)-1-methyl-3-[(propan-2-yloxy)methyl]-7-[3-(5,6,7,8-tetrahydronaphthalen-1-yloxy)propyl]-1,10,11,12,13,15-hexahydropyrazolo[4′,3′:9,10][1,6]oxazacycloundecino[8,7,6-hi]indole-8-carboxylic Acid]
IC50 [1]: 0.0118 µM
EC50 ([2]; Homo sapiens, SU-DHL-5, 3 h): > 33 µM
EC50 ([3]; Homo sapiens, SU-DHL10, 3 h): > 33 µM
IC50 ([4]; Homo sapiens, SU-DHL-5, 72 h): > 3.3e-05 M
IC50 ([5]; Homo sapiens, SU-DHL10, 72 h): > 3.3e-05 M
IC50 ([6]; Homo sapiens, OPM-2, 72 h): > 3.3e-05 M
IC50 ([7]; Homo sapiens, A2780, 72 h): > 3.3e-05 M
IC50 [8, 12]: 2.71e-05 M
IC50 [9, 13]: > 3.3e-05 M

CN1CCCn2c(C(=O)O)c(CCCOc3cccc4ccccc34)c3cccc(c32)-c2c(COc3ccc(C4CCOCC4)cc3)nn(C)c2C1 (single isomer, unassigned) [Example 1-59, (−)-7,9-dimethyl-1-[3-(naphthalen-1-yloxy)propyl]-11-{[4-(tetrahydro-2H-pyran-4-yl)phenoxy]methyl}-4,5,6,7,8,9-hexahydropyrazolo[3′,4′:7,8][1,5]diazecino[9,10,1-hi]indole-2-carboxylic Acid]
IC50 [1]: 0.0938 µM
EC50 [2]: 17.9 µM
EC50 [3]: 15.1 µM
IC50 [4]: 1.06e-05 M
IC50 [5]: 6.64e-06 M
IC50 [6]: 1.26e-05 M
IC50 [7]: 1.16e-05 M
IC50 [8, 10]: 1.24e-05 M
IC50 [9, 11]: 2.01e-05 M
